According to US20090142429A1, “SILICIBACTER SP. STRAIN USEFUL FOR GENETIC TRANSFORMATION OF MARINE ALGAE AND PRODUCTION OF ANTIBIOTIC AGENTS” (UNIVERSITY OF MARYLAND BIOTECHNOLOGY INSTITUTE, priority 2005, published 2009):
Where “and” joins values, the source holds several entries; their conditions need not be identical. Equal entries are not always repeated.

Assays:
[1] = system: Silicibacter sp. strain TM1040; test: Chemotaxis plate screening assay (change in motile colony morphology); type: cell-based; conditions: for Change in morphology with carbon source Alanine / Change in morphology with carbon source Glucose / Change in morphology with carbon source Glycerol / Change in morphology with carbon source Succinate: BM motility agar; for Change in morphology with carbon source Alanine: alanine as single carbon source; for Change in morphology with carbon source Glucose: glucose as single carbon source; for Change in morphology with carbon source Glycerol: glycerol as single carbon source; for Change in morphology with carbon source Succinate: succinate as single carbon source; as to Change in morphology with carbon source Alanine: key: −: minus indicates no change compared to distilled water or no attractant controls; +: either one or two pluses indicates moderate to strong alteration in motile colony phenotype (respectively); ++: either one or two pluses indicates moderate to strong alteration in motile colony phenotype (respectively); as to Change in morphology with carbon source Glucose: key: −: minus indicates no change compared to distilled water or no attractant controls; +: either one or two pluses indicates moderate to strong alteration in motile colony phenotype (respectively); ++: either one or two pluses indicates moderate to strong alteration in motile colony phenotype (respectively); as to Change in morphology with carbon source Glycerol: key: −: minus indicates no change compared to distilled water or no attractant controls; +: either one or two pluses indicates moderate to strong alteration in motile colony phenotype (respectively); ++: either one or two pluses indicates moderate to strong alteration in motile colony phenotype (respectively); as to Response: change in motile colony morphology of TM1040 in response to attractants, compared to the control: key: −: minus indicates no change compared to distilled water or no attractant controls; +: either one or two pluses indicates moderate to strong alteration in motile colony phenotype (respectively); ++: either one or two pluses indicates moderate to strong alteration in motile colony phenotype (respectively)
Method: Following 36 h of incubation, a putative attractant was placed approximately 5 cm from the site of inoculation (or 2.5 cm in front of the periphery of motile cells). Possible chemoattractant compounds were administered as either a sterile solid or concentrated stock solutions. The cells were further incubated for 16 h to allow for additional outward movement, at which time measurement of diameter, shape, and chemotaxis rings internal to the motile colony were made.
[…] Bacteria inoculated into the center of the agar consume nutrients and create a concentration gradient that increases outward from the point of inoculation. The bacteria sense the increasing gradient and swim outwards, seeking higher concentrations of nutrients, which is manifested as a symmetrical “motile” colony. If an attractant is placed at a short distance in front of the advancing motile colony, it forms a second gradient moving towards the oncoming cells that will affect the symmetry of the colony by reducing the net outward swimming of the bacteria.

[2] = system: Silicibacter sp. strain TM1040; test: Quantitative capillary chemotaxis assay; type: cell-based; conditions: for response factor (mean): pure compounds, FIG. 12, capillaries filled with 2 μM or 200 μM attractant; for mean concentration of bacteria in methionine-filled capillaries: starved cells
Text: The cells were pelleted by centrifugation at 4,000×g in a tabletop centrifuge (Centra-CL2; International Equipment Company), the supernatant was discarded, and the pellet was resuspended in chemotaxis buffer (CB) (15 g of ASW, 6 g of Tris-HCl per liter [pH 7.6]) to the same OD. Five hundred microliters of washed cells was placed in one of the wells of the Palleroni chamber, followed by a 1-μl capillary (Microcaps; Drummond) filled with a putative attractant diluted in CB. This process was repeated for each of the four wells in the chamber. A capillary filled with CB only was included in each experiment as a negative control. Depending on the experiment, capillaries remained in the chambers for 0.5 to 2 h, after which time they were removed, and the contents of each capillary were serially diluted in CB. Final dilutions were then spread on HIASW agar plates and incubated for 16 h at 30° C. The concentration of TM1040 in each capillary was derived by counting the CFU on each plate and multiplying by the appropriate dilution factor. […]

[3] = system: Silicibacter sp. strain TM1040; test: Capillary assay: reduction in chemotaxis toward P. piscicida homogenates by externally supplied attractant; type: cell-based; conditions: for % Reduction in CFU per capillary compared to the control / No. of bacteria per capillary (CFU · 10^4), attractant added to external buffer: 200 μM attractant in external buffer; for No. of bacteria per capillary (CFU · 10^4), attractant added to external buffer: SD in parentheses; for mean number of bacteria in the untreated capillaries: untreated homogenate, attractant supplied externally in the buffer
Method: The capillary assay was also used to measure the reduction in chemotaxis through competition when a known attractant was supplied exogenously (i.e., outside the capillary). In this variation, the quantitative capillary method was used, but a known attractant was included in the CB used to suspend the washed cells. A capillary containing a mixture of potential chemoattractant molecules was then placed in the chamber and incubated as described earlier. At the completion of the assay, the percent reduction in chemotaxis was calculated using the following formula: % reduction=[1−(CFU ml^−1exogenous/CFU ml^−1control)]×(100).
Dinoflagellates and Rhodomonas sp. were grown to late exponential phase (ca. 10^5 to 10^6 cells per ml), and the cell density was measured using a Coulter Counter (model M/SZRII; Beckman Coulter). Dinoflagellates were harvested after starvation of the culture to remove Rhodomonas prey algae, which was confirmed by microscopy. The cell densities in P. piscicida and Rhodomonas cultures were normalized to 10^5 cells per ml, and each culture was then pelleted by centrifugation at 4,000×g and 4° C. for 10 min. The supernatant was removed, and the pellets were separately resuspended with either 1 ml of ice-cold distilled water or CB. The cells were homogenized by sonication (Sonic Dismembrator; Fisher), and cell disruption was assessed by microscopy. To examine the heat sensitivity of chemotaxis elicitors, an aliquot of each homogenate was heated to 80° C. for 15 min prior to the assay. All homogenates were then stored at −20° C. When required, the homogenates were thawed, held on ice, and used in the capillary assay as described.

[4] = Destruction of DMSP by heating (GC-FID); type: physicochemical
Method: The concentration of DMSP in 1 ml-samples of heated or boiled 200 μM DMSP and in heated and untreated P. piscicida homogenates was measured using gas chromatography with flame ionization detection, as previously described.
Destruction of 200 μM DMSP in CB was assessed after heating the samples to either 80 or 100° C. for 15 min. At both temperatures, negligible (<2%) loss of DMSP was observed.
An alternative explanation for why heat reduced the chemoattractant quality of the homogenates is that heat acts indirectly through an intermediate to inactivate DMSP. This hypothesis predicts that the concentration of DMSP decreases when a homogenate is heated. The DMSP concentration in untreated and heated homogenates was measured. In untreated P. piscicida homogenates the mean concentration of DMSP was 8.21±1.2 μM. After the homogenate was heated, the concentration of DMSP fell below the level of detectability (<1 μM).

[5] = heated (80° C. for 15 min) P. piscicida homogenate
[6] = untreated P. piscicida homogenate
[7] = glucose background (BM glucose)

SMILES	Response: change in motile colony morphology of TM1040 in response to attractants, compared to the control ([1]; BM glycerol motility agar)	Change in morphology with carbon source Alanine [1]	Change in morphology with carbon source Glucose [1]	Change in morphology with carbon source Glycerol [1]	Change in morphology with carbon source Succinate [1]	response factor (mean) [2]	chemotactic response of TM1040 in plate assay ([1]; BM glycerol motility agar)	also measured
NCCCC[C@H](N)C(=O)O [lysine]	+	−	−	+	−	ca. 3.5		
NCC(=O)O [Glycine]	+					ca. 3.5		
O=C(O)CC(O)(CC(=O)O)C(=O)O [Citrate]	++					none were found to be significant chemoattractants	strong positive response	
CC(C)[C@H](N)C(=O)O [valine]	++	+	−	++	+	6.1	significant effects on the periphery of the motile colony	% Reduction in CFU per capillary compared to the control [3, 5]: 74%; No. of bacteria per capillary (CFU · 10^4), attractant added to external buffer [3, 5]: 0.91 (±0.24) CFU · 10^4; % Reduction in CFU per capillary compared to the control ([3]; heated (80° C. for 15 min) P. piscicida homogenate, listed as Valine): 74.07%; % Reduction in CFU per capillary compared to the control [3, 6]: 78%; No. of bacteria per capillary (CFU · 10^4), attractant added to external buffer [3, 6]: 1.53 (±0.15) CFU · 10^4; % Reduction in CFU per capillary compared to the control ([3]; untreated P. piscicida homogenate, listed as Valine): 78.87%; mean number of bacteria in the untreated capillaries [3]: 1.53×10^4 CFU per ml
C[S+](C)CCC(=O)[O-] [DMSP, Dimethylsulfoniopropionate]	++	+	−	++	+	8.2	marked deformation in the periphery of the motile colony	loss of DMSP ([4]; 200 μM DMSP in CB heated to either 80 or 100° C. for 15 min): < 2%; concentration of DMSP in P. piscicida homogenates ([4]; after the homogenate was heated, level of detectability): < 1 µM; mean concentration of DMSP in P. piscicida homogenates ([4]; untreated homogenate): 8.21 ± 1.2 µM; % Reduction in CFU per capillary compared to the control [3, 5]: 11% and 11.68%; No. of bacteria per capillary (CFU · 10^4), attractant added to external buffer [3, 5]: 3.10 (±0.16) CFU · 10^4; % Reduction in CFU per capillary compared to the control [3, 6]: 54% and 54.01%; No. of bacteria per capillary (CFU · 10^4), attractant added to external buffer [3, 6]: 3.33 (±0.15) CFU · 10^4; mean number of bacteria in the untreated capillaries [3]: 3.33×10^4 CFU per ml
O=C(O)CCC(=O)O [Succinate]	+	++	+	+	−	none were found to be significant chemoattractants	mild response	chemotactic response of TM1040 in plate assay [1, 7]: moderate response
OC[C@H]1O[C@@](CO)(O[C@H]2O[C@H](CO)[C@@H](O)[C@H](O)[C@H]2O)[C@@H](O)[C@@H]1O [sucrose]	++						responded positively	
O=C[C@H](O)[C@H](O)[C@H](O)CO [ribose]	−							
CSCC[C@H](N)C(=O)O [methionine]	++					9.8	significant effects on the periphery of the motile colony	% Reduction in CFU per capillary compared to the control [3, 5]: 48%; No. of bacteria per capillary (CFU · 10^4), attractant added to external buffer [3, 5]: 1.80 (±0.11) CFU · 10^4; % Reduction in CFU per capillary compared to the control ([3]; heated (80° C. for 15 min) P. piscicida homogenate, listed as Methionine): 48.72%; % Reduction in CFU per capillary compared to the control [3, 6]: 58%; No. of bacteria per capillary (CFU · 10^4), attractant added to external buffer [3, 6]: 3.03 (±0.32) CFU · 10^4; % Reduction in CFU per capillary compared to the control ([3]; untreated P. piscicida homogenate, listed as Methionine): 58.15%; mean number of bacteria in the untreated capillaries [3]: 3.03×10^4 CFU per ml; mean concentration of bacteria in methionine-filled capillaries ([2]; 0.5 h, 200 μM): 5.3×10^7 CFU per ml; mean concentration of bacteria in methionine-filled capillaries ([2]; 1 h, 200 μM): 1.8×10^8 CFU per ml; mean concentration of bacteria in methionine-filled capillaries ([2]; 1.5 h, 200 μM): 2.4×10^8 CFU per ml; mean concentration of bacteria in methionine-filled capillaries ([2]; 2 h, 200 μM): 2.4×10^8 CFU per ml; maximum mean concentration of bacteria in methionine-filled capillaries ([2]; without starvation, peak at 1.5 h, 200 μM): 2.1×10^8 CFU per ml
O=C(O)CCC(=O)C(=O)O [Alpha-ketoglutarate]	−	−	−	−	+	none were found to be significant chemoattractants	no response	
NC(=O)C[C@H](N)C(=O)O [asparagine]	++							
CC(C)C[C@H](N)C(=O)O [leucine]	+							
O=C(O)CCS [MPA, 3-mercaptopropionate]	+						only weakly	
O=C[C@H](O)[C@@H](O)[C@H](O)CO [xylose]	−							
C=CC(=O)O [acrylate]	++	+	+	++	++		responded strongly	chemotactic response of TM1040 in plate assay [1, 7]: moderate response
C[S+](C)[O-] [DMSO, dimethyl sulfoxide]	−	−	−	−	−			
N[C@@H](Cc1c[nH]c2ccccc12)C(=O)O [tryptophan]	+							
N=C(N)NCCC[C@H](N)C(=O)O [arginine]	++							
